Results published in PubChem BioAssay AID1963853 (Molecular Pharmacology Branch, DTP, NCI, 2024).

Tested on: 266295-075-R-J1-PDC spheroid viability
Assay: Anticancer human tumor 266295-075-R-J1-PDC patient-derived head and neck squamous carcinoma cell line growth inhibition [POLQ]
Settings: spheroids with HUVEC and MSC; for IC50: curve of first compound; for viability, T/C: stronger effect = lower value; active means viability on the fitted dose curve at most 10% of control; inactive means the rest
In short: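 PDC + HUVEC + MSC complex spheroids; POLQ inhibitors ± partner drugs; top conc. at/near clinical Cmax, else 10 microM (SN-38 1 microM), half-log dilutions; 37 degrees C, 5% CO2.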

[1] = second compound 0.0316 µM, first compound 0.0316 µM
[2] = second compound 0.0316 µM, first compound 0.1 µM
[3] = second compound 0.0316 µM, first compound 0.316 µM
[4] = second compound 0.0316 µM, first compound 1 µM
[5] = second compound 0.0316 µM, first compound 3.16 µM
[6] = second compound 0.0316 µM, first compound 10 µM
[7] = second compound 0.1 µM, first compound 0.0316 µM
[8] = second compound 0.1 µM, first compound 0.1 µM
[9] = second compound 0.1 µM, first compound 0.316 µM
[10] = second compound 0.1 µM, first compound 1 µM
[11] = second compound 0.1 µM, first compound 3.16 µM
[12] = second compound 0.1 µM, first compound 10 µM
[13] = second compound 0.316 µM, first compound 0.0316 µM
[14] = second compound 0.316 µM, first compound 0.1 µM
[15] = second compound 0.316 µM, first compound 0.316 µM
[16] = second compound 0.316 µM, first compound 1 µM
[17] = second compound 0.316 µM, first compound 3.16 µM
[18] = second compound 0.316 µM, first compound 10 µM
[19] = second compound 1 µM, first compound 0.0316 µM
[20] = second compound 1 µM, first compound 0.1 µM
[21] = second compound 1 µM, first compound 0.316 µM
[22] = second compound 1 µM, first compound 1 µM
[23] = second compound 1 µM, first compound 3.16 µM
[24] = second compound 1 µM, first compound 10 µM
[25] = second compound 3.16 µM, first compound 0.0316 µM
[26] = second compound 3.16 µM, first compound 0.1 µM
[27] = second compound 3.16 µM, first compound 0.316 µM
[28] = second compound 3.16 µM, first compound 1 µM
[29] = second compound 3.16 µM, first compound 3.16 µM
[30] = second compound 3.16 µM, first compound 10 µM
[31] = second compound 10 µM, first compound 0.0316 µM
[32] = second compound 10 µM, first compound 0.1 µM
[33] = second compound 10 µM, first compound 0.316 µM
[34] = second compound 10 µM, first compound 1 µM
[35] = second compound 10 µM, first compound 3.16 µM
[36] = second compound 10 µM, first compound 10 µM
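Further: spheroids exposed to compounds for seven days before readout.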

CC(C)n1c(=O)n(C)c2cnc3cc(F)c(-c4ccc(OCCCN5CCCCC5)nc4)cc3c21 + Nc1ccc(C#CCN(C(=O)Cc2ncc(C(F)(F)F)cc2C(F)(F)F)c2ccc(F)cc2)nn1
> 10 µM: IC50 (second compound 0.0316 µM) | IC50 (second compound 0.1 µM) | IC50 (second compound 0.316 µM) | IC50 (second compound 1 µM) | IC50 (second compound 3.16 µM) | IC50 (second compound 10 µM)
inactive: viability, T/C [1] 105% | viability, T/C [2] 99.3% | viability, T/C [3] 104% | viability, T/C [4] 106% | viability, T/C [5] 82.8% | viability, T/C [6] 76.3% | viability, T/C [7] 93.8% | viability, T/C [8] 103% | viability, T/C [9] 88% | viability, T/C [10] 80.6% | viability, T/C [11] 96% | viability, T/C [12] 64.5% | viability, T/C [13] 110% | viability, T/C [14] 105% | viability, T/C [15] 90.2% | viability, T/C [16] 91.3% | viability, T/C [17] 89.9% | viability, T/C [18] 66.7% | viability, T/C [19] 93.5% | viability, T/C [20] 114% | viability, T/C [21] 99.4% | viability, T/C [22] 90% | viability, T/C [23] 82.2% | viability, T/C [24] 65.3% | viability, T/C [25] 121% | viability, T/C [26] 118% | viability, T/C [27] 103% | viability, T/C [28] 96.3% | viability, T/C [29] 92.4% | viability, T/C [30] 87.9% | viability, T/C [31] 96.5% | viability, T/C [32] 87.9% | viability, T/C [33] 118% | viability, T/C [34] 93.3% | viability, T/C [35] 66.4% | viability, T/C [36] 71.8%

CCCS(=O)(=O)Nc1ccc(F)c(C(=O)c2c[nH]c3ncc(-c4ccc(Cl)cc4)cc23)c1F + Cc1cccc(N(C)C(=O)C2C(O)CCN2c2nc(C)cc(C(F)(F)F)c2C#N)c1
> 10 µM: IC50 (second compound 0.0316 µM) | IC50 (second compound 0.1 µM) | IC50 (second compound 0.316 µM) | IC50 (second compound 1 µM) | IC50 (second compound 3.16 µM) | IC50 (second compound 10 µM)
inactive: viability, T/C [1] 108% | viability, T/C [2] 97.7% | viability, T/C [3] 122% | viability, T/C [4] 161% | viability, T/C [5] 150% | viability, T/C [6] 126% | viability, T/C [7] 127% | viability, T/C [8] 81.3% | viability, T/C [9] 92.8% | viability, T/C [10] 126% | viability, T/C [11] 187% | viability, T/C [12] 142% | viability, T/C [13] 95.5% | viability, T/C [14] 93% | viability, T/C [15] 98.1% | viability, T/C [16] 134% | viability, T/C [17] 171% | viability, T/C [18] 139% | viability, T/C [19] 118% | viability, T/C [20] 76.5% | viability, T/C [21] 95.5% | viability, T/C [22] 132% | viability, T/C [23] 158% | viability, T/C [24] 142% | viability, T/C [25] 106% | viability, T/C [26] 100% | viability, T/C [27] 96.6% | viability, T/C [28] 111% | viability, T/C [29] 155% | viability, T/C [30] 132% | viability, T/C [31] 96.3% | viability, T/C [32] 137% | viability, T/C [33] 113% | viability, T/C [34] 111% | viability, T/C [35] 187% | viability, T/C [36] 134%

CNCc1ccc(-c2[nH]c3cc(F)cc4c3c2CCNC4=O)cc1 + COC1C(OC(N)=O)C(O)C(Oc2ccc3c(O)c(NC(=O)c4ccc(O)c(CC=C(C)C)c4)c(=O)oc3c2C)OC1(C)C
> 10 µM: IC50 (second compound 0.0316 µM) | IC50 (second compound 0.1 µM) | IC50 (second compound 0.316 µM) | IC50 (second compound 1 µM) | IC50 (second compound 3.16 µM) | IC50 (second compound 10 µM)
inactive: viability, T/C [1] 95.1% | viability, T/C [2] 79.6% | viability, T/C [3] 86.8% | viability, T/C [4] 78.3% | viability, T/C [5] 83.8% | viability, T/C [6] 98.2% | viability, T/C [7] 90.2% | viability, T/C [8] 85.1% | viability, T/C [9] 97.2% | viability, T/C [10] 86.9% | viability, T/C [11] 91.3% | viability, T/C [12] 99% | viability, T/C [13] 111% | viability, T/C [14] 83.3% | viability, T/C [15] 93.1% | viability, T/C [16] 91.5% | viability, T/C [17] 108% | viability, T/C [18] 114% | viability, T/C [19] 92.8% | viability, T/C [20] 92.4% | viability, T/C [21] 90.5% | viability, T/C [22] 83.7% | viability, T/C [23] 107% | viability, T/C [24] 105% | viability, T/C [25] 97.7% | viability, T/C [26] 85.5% | viability, T/C [27] 92.1% | viability, T/C [28] 81% | viability, T/C [29] 108% | viability, T/C [30] 115% | viability, T/C [31] 94.2% | viability, T/C [32] 82.5% | viability, T/C [33] 96.7% | viability, T/C [34] 101% | viability, T/C [35] 113% | viability, T/C [36] 105%
